Results from US11999695B2, “YAP1 inhibitors that target the interaction of YAP1 with OCT4” (H. LEE MOFFITT CANCER CENTER AND RESEARCH INSTITUTE, INC., priority 2016, dated 2024).

What was measured:
[1] = test system: cisplatin-insensitive SP cells from H1650 cells; experiment: Sphere formation of cisplatin-insensitive SP cells (FIG. 30); assay type: cell-based; conditions: YAP1 inhibitors 2 uM, cisplatin 5 uM
Protocol: One feature of cancer stem cells is their drug resistance. Sphere formation of SP cells from H1650 cells was conduced in the presence of cisplatin; stem-like SP cells can self-renew and form spheres in stem-cell selective media and on low-adherence plates, even in the presence of 5 uM cisplatin (top right image).

[2] = test system: stem-like side-population (SP) cells; experiment: Sphere-formation assay, self-renewal of side-population cells (FIG. 18-21); assay type: cell-based; conditions: SP cells in low-adherence plates, stem-cell selective media, 10 days
Protocol: FIG. 18 is a group of cell micrographs showing inhibition of self-renewals by selected compounds in a sphere formation assay. Self-renewal of stem-like side-population (SP) cells was measured by a sphere-formation assay. Essentially, side-population cells were sorted by flow cytometry based on Hoechst 33342 dye exclusion as described in our publications. Isolated SP cells were grown in low-adherence plates in stem-cell selective media for 10 days (Singh and Chellappan, 2012, Bora-Singhal et al., 2015 etc). Self-renewal ability of the stem-like cells can be assessed by the formation of spheres under these conditions; non-stem cells cannot self-renew and form spheres.
The assay is conducted for 10 days, and the number of spheres larger than 50 μm in diameter is counted.

binding of Oct4 to YAP1 = target: T1, binding of Oct4 to YAP1 (Homo sapiens, UniProt P46937); experiment: Immunoprecipitation-Western blot of Oct4-YAP1 binding (FIG. 15); assay type: cell-based; conditions: 5 μM, 72 hours
T1 construct: Lysates were prepared from the cells, and immunoprecipitated with an antibody to OCt4; endogenous in cells; host or cells: A549 and H1650 cells
Protocol: FIG. 15 is a group of gel images showing peptidomimetic compounds SR2-022, SR2-030, and SR2-033 reduced YAP1-Oct4 interaction as detected by IP-WB. An immunoprecipitation-Western blot experiment was conducted to assess if the indicated compounds could disrupt the binding of Oct4 to YAP1. IP-western blots were conducted using the protocols described in Bora-Singhal et al, 2015. Essentially, cells were treated with 5 μM of the indicated compounds for 72 hours. Lysates were prepared from the cells, and immunoprecipitated with an antibody to OCt4, or a control IgG. Lysates as well as the immunoprecipitates were resoled by a polyacrylamide gel and a western blot was conducted using an antibody to YAP1.

[3] = test system: A549 lung adenocarcinoma cells; experiment: Cytokine array on A549 cells (FIG. 39); assay type: cell-based
Description: FIG. 39 is a graph showing results from a cytokine array performed on A549 cells treated with SR2-033.

YAP1:OCT4 = YAP1:OCT4 (Homo sapiens, UniProt P46937); experiment: In vitro YAP1:OCT4 ELISA binding assay; conditions: YAP1:OCT4 disruption
Protocol: Activities of Compounds in the In Vitro YAP1:OCT4 ELISA Binding Assay
Selected compounds were assayed in a YAP1:OCT4 binding assay.

[4] = test system: primary cancer associated fibroblasts; experiment: Cytokine array (FIG. 40); assay type: cell-based
Sox2 [5] = experiment: Sox2 protein expression, gel images (FIG. 16); assay type: cell-based; conditions: adenocarcinoma cells
Description: FIG. 16 is a group of gel images showing Sox2 protein expression was reduced by SR-2033 in adenocarcinoma cells.

[6] = test system: phoshodiesterate kinase 2; experiment: Western blot of phoshodiesterate kinase 2 levels (FIG. 17); assay type: cell-based; conditions: 10 uM; 72 hours
Protocol: (§1) FIG. 17 is a group of gel images showing compounds SR2-046, SR2-051, and SR2-052 reduce Sox2, c-Myc expression in H165 and A549 cells. Cells were treated for 72 hours with the indicated compounds. A western blot showing the reduction of Sox2 expression in H1650 cells and in A549 cells after treatment with 10 uM of the drugs for 72 hours. There was a reduction in the levels of C-myc and phoshodiesterate kinase 2 as well. Western blotting was done using our standard protocols, as published in Bora-Singhal et al., 2015.

Sox2 [7] = experiment: Western blot of Sox2 expression (FIG. 17); assay type: cell-based; conditions: H1650 and A549 cells; 10 uM; 72 hours
Protocol: as §1

c-Myc = experiment: Western blot of c-Myc expression (FIG. 17); assay type: cell-based; conditions: H1650 and A549 cells; 10 uM; 72 hours
Protocol: as §1

[8] = test system: methotrexate insensitive H146 small-cell lung carcinoma cells; experiment: Sphere formation of methotrexate-insensitive cells (FIG. 31); assay type: cell-based; conditions: YAP1 inhibitors 2 uM, methotrexate 2.5 uM
Protocol: A similar experiment, where sphere formation of small-cell lung cancer cells, which are insensitive to methotrexate, was inhibited by YAP1 inhibitors. Sphere formation of SP cells from H146 small-cell lung carcinoma cells was conduced in the presence of 2.5 uM methotrexate; stem-like cells can self-renew and form spheres in stem-cell selective media and on low-adherence plates, even in the presence of 2.5 uM methotrexate.

Chain of YAP1:OCT4 (P46937 whole entry): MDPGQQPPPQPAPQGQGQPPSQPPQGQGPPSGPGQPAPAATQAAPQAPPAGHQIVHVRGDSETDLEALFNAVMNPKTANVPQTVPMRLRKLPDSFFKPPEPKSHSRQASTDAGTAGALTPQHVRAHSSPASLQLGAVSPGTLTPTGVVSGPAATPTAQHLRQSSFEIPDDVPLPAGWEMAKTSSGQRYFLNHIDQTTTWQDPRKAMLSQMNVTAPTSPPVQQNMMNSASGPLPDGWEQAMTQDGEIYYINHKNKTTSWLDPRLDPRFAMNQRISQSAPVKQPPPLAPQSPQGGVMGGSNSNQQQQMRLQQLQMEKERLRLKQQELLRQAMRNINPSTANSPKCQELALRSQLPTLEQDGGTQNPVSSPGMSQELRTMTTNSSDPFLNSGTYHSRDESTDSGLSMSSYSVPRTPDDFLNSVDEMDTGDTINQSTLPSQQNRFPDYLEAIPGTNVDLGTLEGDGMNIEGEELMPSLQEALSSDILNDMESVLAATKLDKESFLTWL
T1 sequence (P46937 whole entry): as above

Row | SMILES | IC50 (YAP1:OCT4) | levels of phoshodiesterate kinase 2 (western blot) [6] | Sox2 expression (western blot) (Sox2 [7]) | c-Myc expression (western blot) (c-Myc) | further results
1 | N.N.[Cl][Pt][Cl] [Cisplatin] | – | – | – | – | self-renewal (sphere formation) of dissociated cisplatin-insensitive spheres [1]: allowed self-renewal and formation of colonies; number of spheres [2]: no effect
2 | COC(=O)[C@H](Cc1ccc(OCc2ccccc2)cc1)NC(=O)CC1CCN(C(=O)CCc2ccc(C#N)cc2)CC1 [SR2-033, Methyl (S)-3-(4-(benzyloxy)phenyl)-2-(2-(1-(3-(4-cyanophenyl)propanoyl)piperidin-4-yl)acetamido)propanoate] | < 10 µM | – | – | – | YAP1-Oct4 interaction detected by IP-WB (binding of Oct4 to YAP1; A549 cells): completely abolished; YAP1-Oct4 interaction detected by IP-WB (binding of Oct4 to YAP1; H1650 cells): significantly reduced; levels of secreted cytokines (cytokine array) [3]: altered; levels of secreted cytokines (cytokine array) [4]: altered; Sox2 protein expression (Sox2 [5]): reduced
3 | COC(=O)[C@H](Cc1ccc(OCc2ccccc2)cc1)NC(=O)CC1CCN(C(=O)CCCc2ccccc2)CC1 [SR2-046, Methyl (S)-3-(4-(benzyloxy)phenyl)-2-(2-(1-(4-phenylbutanoyl)piperidin-4-yl)acetamido)-propanoate] | < 10 µM | reduction | reduce | reduce | –
4 | COC(=O)[C@H](Cc1ccc(OCc2ccccc2)cc1)NC(=O)CC1CCN(C(=O)c2ccc(NC(=O)OC(C)(C)C)cc2)CC1 [SR2-051, Methyl (S)-3-(4-(benzyloxy)phenyl)-2-(2-(1-(4-((tert-butoxycarbonyl)amino)benzoyl)piperidin-4-yl)acetamido)propanoate] | < 10 µM | reduction | reduce | reduce | –
5 | COC(=O)[C@H](Cc1ccc(OCc2ccccc2)cc1)NC(=O)CC1CCN(C(=O)Cc2ccc(NC(=O)OC(C)(C)C)cc2)CC1 [SR2-052, Methyl (S)-3-(4-(benzyloxy)phenyl)-2-(2-(1-(2-(4-((tert-butoxycarbonyl)amino)phenyl)acetyl)piperidin-4-yl)acetamido)propanoate] | < 10 µM | reduction | reduce | reduce | –
6 | CN(Cc1cnc2nc(N)nc(N)c2n1)c1ccc(C(=O)N[C@@H](CCC(=O)O)C(=O)O)cc1 [methotrexate] | – | – | – | – | self-renewal (sphere formation) of dissociated methotrexate-insensitive spheres [8]: allowed self-renewal and formation of colonies
